Assay results: patent US12528800B2, “Pesticidal compounds” (BASF SE, priority 2018, dated 2026)

Legend:
Assay type in all cases: in vivo
[1] = system: tobacco budworm (Heliothis virescens); experiment: Action on tobacco budworm (Heliothis virescens), microtiter plate diet test; conditions: 120 h, egg and larval mortality after 5 days, read-out: mortality in comparison with untreated controls
Description: For evaluating control of tobacco budworm (Heliothis virescens) the test unit consisted of 96-well-microtiter plates containing an insect diet and 15-25 H. virescens eggs.
The compounds were formulated using a solution containing 75% v/v water and 25% v/v DMSO. Different concentrations of formulated compounds were sprayed onto the insect diet at 10 μl, using a custom-built micro atomizer, at two replications.
After application, microtiter plates were incubated at about 28+1° C. and about 80+5% relative humidity for 5 days. Egg and larval mortality were then visually assessed.

[2] = system: Diamond back moth (Plutella xylostella); experiment: Action on diamond back moth (Plutella xylostella), cabbage leaf dip; conditions: foliar, 3rd instar larvae on dipped cabbage leaves, 72 hours after treatment, read-out: mortality in comparison with untreated controls
Description: The active compound is dissolved at the desired concentration in a mixture of 1:1 (v/v) distilled water: acetone. Surfactant (Kinetic® HV) is added at a rate of 0.01% (v/v). The test solution is prepared at the day of use.
Leaves of cabbage were dipped in test solution and air-dried. Treated leaves were placed in petri dishes lined with moist filter paper and inoculated with ten 3rd instar larvae. Mortality was recorded 72 hours after treatment. Feeding damages were also recorded using a scale of 0-100%.

[3] = system: yellow fever mosquito (Aedes aegypti); experiment: whole plant or invertebrate; conditions: 48 h, larval mortality visually assessed after 2 days, read-out: mortality in comparison with untreated controls
Description: For evaluating control of yellow fever mosquito (Aedes aegypti) the test unit consisted of 96-well-microtiter plates containing 200 μl of tap water per well and 5-15 freshly hatched A. aegypti larvae.
The active compounds or mixtures were formulated using a solution containing 75% (v/v) water and 25% (v/v) DMSO. Different concentrations of formulated compounds or mixtures were sprayed onto the insect diet at 2.5 μl using a custom built micro atomizer, at two replications.
For experimental mixtures in these tests identical volumes of both mixing partners at the desired concentrations respectively, were mixed together.
After application, microtiter plates were incubated at 28+1° C., 80+5% RH for 2 days. Larval mortality was then visually assessed.

[4] = system: Southern armyworm (Spodoptera eridania), 2nd instar larvae; experiment: Action on southern armyworm (Spodoptera eridania), 2nd instar larvae, sprayed lima bean plants; conditions: 96 h, 2nd instar larvae on lima bean plants, 4 days after treatment, read-out: mortality in comparison with untreated controls
Description: The active compounds were formulated by a Tecan liquid handler in 100% cyclohexanone as a 10,000 ppm solution supplied in tubes. The 10,000 ppm solution was serially diluted in 100% cyclohexanone to make interim solutions. These served as stock solutions for which final dilutions were made by the Tecan in 50% acetone:50% water (v/v) into 10 or 20 ml glass vials. A nonionic surfactant (Kinetic®) was included in the solution at a volume of 0.01% (v/v). The vials were then inserted into an automated electrostatic sprayer equipped with an atomizing nozzle for application to plants/insects.
Lima bean plants (variety Sieve) were grown 2 plants to a pot and selected for treatment at the 1st true leaf stage. Test solutions were sprayed onto the foliage by an automated electrostatic plant sprayer equipped with an atomizing spray nozzle. The plants were dried in the sprayer fume hood and then removed from the sprayer. Each pot was placed into perforated plastic bags with a zip closure. About 10 to 11 armyworm larvae were placed into the bag and the bags zipped closed. Test plants were maintained in a growth room at about 25° C. and about 20-40% relative humidity for 4 days, avoiding direct exposure to fluorescent light (24 hour photoperiod) to prevent trapping of heat inside the bags. Mortality and reduced feeding were assessed 4 days after treatment, compared to untreated control plants.

[5] = system: boll weevil (Anthonomus grandis); experiment: Action on boll weevil (Anthonomus grandis), microtiter plate diet test; conditions: 120 h, egg and larval mortality after 5 days, read-out: mortality in comparison with untreated controls
Description: For evaluating control of boll weevil (Anthonomus grandis) the test unit consisted of 96-well-microtiter plates containing an insect diet and 5-10 A. grandis eggs.
The compounds were formulated using a solution containing 75% (v/v) water and 25% (v/v) DMSO. Different concentrations of formulated compounds were sprayed onto the insect diet at 5 μl, using a custom built micro atomizer, at two replications.
After application, microtiter plates were incubated at about 25+1° C. and about 75+5% relative humidity for 5 days. Egg and larval mortality was then visually assessed.

Row | Structure (SMILES) | mortality at 800 ppm [1] [%] | mortality at 500 ppm [2] [%] | mortality at 800 ppm [3] [%] | mortality at 300 ppm [4] [%] | mortality at 800 ppm [5] [%]
1 | CC(C)c1ccccc1N1C(=O)CS/C1=N\N=C\c1ccc(-c2cc(C(=O)Nc3ccc(OC(F)(F)F)cc3)n(C)n2)cc1 [Compound C-47, 5-[4-[(E)-[(Z)-[3-(2-isopropylphenyl)-4-oxo-thiazolidin-2-ylidene]hydrazono]methyl]phenyl]-2-methyl-N-[4-(trifluoromethoxy)phenyl]pyrazole-3-carboxamide] | ≥ 75 | ≥ 75 | ≥ 50 | ≥ 75 | 
2 | CCn1nc(-c2ccc(NC(=O)O[C@@H]3O[C@@H](C)[C@H](OC)[C@@H](OC)[C@H]3OC)cc2)cc1NCc1ccc(OC(F)(F)F)cc1 [Compound C-40, [(2S,3R,4R,5S,6S)-3,4,5-trimethoxy-6-methyl-tetrahydropyran-2-yl] N-[4-[1-ethyl-5-[[4-(trifluoromethoxy)phenyl]methylamino]pyrazol-3-yl]phenyl]carbamate] | ≥ 75 | ≥ 75 | ≥ 50 |  | ≥ 75
3 | CCn1nc(-c2ccc(NC(=O)O[C@@H]3O[C@@H](C)[C@H](OC)[C@@H](OC)[C@H]3OC)cc2)cc1NC(=O)c1ccc(OC(F)(F)F)cc1 [Compound C-33, [(2S,3R,4R,5S,6S)-3,4,5-trimethoxy-6-methyl-tetrahydropyran-2-yl] N-[4-[1-ethyl-5-[[4-(trifluoromethoxy)benzoyl]amino]pyrazol-3-yl]phenyl]carbamate] | ≥ 75 | ≥ 75 | ≥ 50 |  | ≥ 75
4 | CC(C)c1ccccc1N1C(=O)CS/C1=N\N=C\c1ccc(-c2cc(NC(=N)c3ccc(OC(F)(F)F)cc3)n(C)n2)cc1 [Compound C-6, N-[5-[4-[(E)-[(Z)-[3-(2-isopropylphenyl)-4-oxo-thiazolidin-2-ylidene]hydrazono]methyl]phenyl]-2-methyl-pyrazol-3-yl]-4-(trifluoromethoxy) benzamidine] | ≥ 75 | ≥ 75 | ≥ 50 | ≥ 75 | ≥ 75
5 | CCn1nc(-c2ccc(/C=N/O[C@@H]3O[C@@H](C)[C@H](OC)[C@@H](OC)[C@H]3OC)cc2)cc1NC(=O)c1ccc(OC(F)(F)F)cc1 [Compound C-32, N-[2-ethyl-5-[4-[(E)-[(2S,3R,4R,5S,6S)-3,4,5-trimethoxy-6-methyl-tetrahydropyran-2-yl]oxyiminomethyl]phenyl]pyrazol-3-yl]-4-(trifluoromethoxy)benzamide] | ≥ 75 | ≥ 75 | ≥ 50 | ≥ 75 | ≥ 75
6 | CC(C)c1ccccc1/N=C1\SCC(=O)N1/N=C/c1ccc(-c2cc(OCc3ccc(OC(F)(F)F)cc3)n(C)n2)cc1 [Compound C-12, (2Z)-2-(2-isopropylphenyl)imino-3-[(E)-[4-[1-methyl-5-[[4-(trifluoromethoxy)phenyl]methoxy]pyrazol-3-yl]phenyl]methyleneamino]thiazolidin-4-one] | ≥ 75 | ≥ 75 | ≥ 50 | ≥ 75 | ≥ 75
